Results: patent US8765396B2, “Method of screening a test agent for activity to modulate an oxidative demethylation enzyme” (Arbor Assays LLC, priority 2009, dated 2014)

Target: T1, human histone demethylase JMJD2A (catalytic domain, residues 1-350) (Homo sapiens, UniProt O75164)
T1 construct: recombinantly produced catalytic domain, residues 1-350, of the human histone demethylase JMJD2A
T1 sequence (O75164 1-350): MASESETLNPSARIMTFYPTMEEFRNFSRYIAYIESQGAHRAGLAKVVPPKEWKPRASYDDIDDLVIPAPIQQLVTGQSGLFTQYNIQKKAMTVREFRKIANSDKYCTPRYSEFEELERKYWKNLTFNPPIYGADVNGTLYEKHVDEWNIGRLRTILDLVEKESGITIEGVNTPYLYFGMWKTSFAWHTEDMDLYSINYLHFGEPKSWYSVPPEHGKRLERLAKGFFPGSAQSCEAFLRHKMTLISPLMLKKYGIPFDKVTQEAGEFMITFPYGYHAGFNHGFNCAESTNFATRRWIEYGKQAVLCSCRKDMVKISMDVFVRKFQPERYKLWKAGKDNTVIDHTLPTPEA
Assay: Jumonji type histone demethylase (JMJD2A) activity assay with Luminos reagent formaldehyde fluorescence detection
Type: biochemical
Settings: 1.0 mM NOG; 0.5 mM 2-OG, 0.3 mM H3K9me3 peptide, 5 μM JMJD2A, 37° C., 30 minutes; triplicate
Method: A series of demethylase assays with Luminos reagent are performed. These assays are conducted with recombinantly produced catalytic domain, residues 1-350, of the human histone demethylase JMJD2A that demethylates the trimethylated forms of Lys9 and Lys36 in histone H3.
A positive control assay is performed using a 100 microliter assay cocktail of 20 mM HEPES pH 7.5, 50 mM NaCl, 1 mM Sodium Ascorbate, 0.05 mM FeSO4, and 5 μM JMJD2A. The assay is initiated by the addition of the cofactor 2-oxoglutarate (2-OG, 0.5 mM) and a 15-residue histone H3 trimethylated Lys9 (H3K9me3) substrate peptide (0.3 mM, H2N-[…](tri-methyl)STGGKA-amide) (SEQ ID NO. 1).
Three negative control reactions are performed in which 2-OG, the H3K9me3 peptide, and JMJD2A are omitted, respectively. […] Specifically, reactions are performed with 1.0 mM N-oxalylglycine (NOG), a competitive inhibitor of 2-OG, and desferoxamine (0.2 mM), a potent Fe(II) chelator that inhibits the oxidative reaction catalyzed by Fe(II)-dependent JmjC demethylases. […] Fifty microliters of the Luminos reagent solution prepared as described in Example 1 is then added to each reaction and the fluorescence is allowed to develop at 37° C. for 30 minutes. The fluorescence of the formaldehyde-Luminos reagent adduct is measured at 510 nm using an excitation wavelength of 440 nm with a Tecan Safire 2 microplate reader. […]

diminishes fluorescence in comparison to the positive control assay: two-fold
Structure (SMILES): O=C(O)CNC(=O)C(=O)O [NOG, N-oxalylglycine]
